By boiling point is commonly meant the temperature of boiling at a given pressure. Usually melting point stands for the temperature of the solid-liquid transition.

The structures appear in SMILES notation.

Consider 49 molecules from the OPERA property sets (Mansouri et al. 2018).

Conditions in the first data set: not given
`OCC(F)F` displayed a boiling point of 95.5 °C and a melting point of -28.2 °C.

As to `FCBr`, the boiling point amounted to 19 °C.

As to `CC[C@]12CCCN3CCc4c(n(c5ccccc45)[C@@](O)(C(=O)OC)C1)[C@@H]32`, the melting point was 232 °C.

The molecule `Cc1c(Cl)ccc(Cl)c1Cl` registered a log10 Henry constant (atm·m³/mol) of -2.82.

As for `c1ccc2c(c1)ccc1c3ccccc3sc21`, the log10 vapour pressure (mmHg) is -6.94 and the melting point was found to be 189 °C.

For `Nc1ccc2cc(S(=O)(=O)O)cc(O)c2c1`, the ready biodegradability result is reported as “not readily biodegradable”.

For `Nc1c(Cl)cc(-c2cc(Cl)c(N)c(S(=O)(=O)O)c2)cc1S(=O)(=O)O`, the ready biodegradability result is given as “not readily biodegradable”.

Molecule `COc1ccc(-c2coc3cc(O)ccc3c2=O)cc1` came in with a melting point of 256 °C.

`C/C=C\C` yielded a boiling point of 2.25 °C, a log10 Henry constant (atm·m³/mol) of -0.643 and a melting point of -122 °C.

In the case of `CCOC(=O)C(C)=O`, the boiling point stood at 155 °C and the melting point was -50 °C.

The molecule `FC(Br)C(F)(F)F` (stereo unspecified) came in with a boiling point of 8.6 °C, a log10 Henry constant (atm·m³/mol) of -1.24 and a melting point of -80 °C.

In the case of `Cc1cc2ccccc2oc1=O`, the boiling point stood at 292 °C and the melting point came to 91 °C.

Molecule `CC(C)COCC(C)O` (stereo unspecified) returned a boiling point of 165 °C and a log10 vapour pressure (mmHg) of 0.114.

For the molecule `CCC(=O)CC(C)CC` (stereo unspecified), the boiling point is 159 °C and the ready biodegradability entry is given as “readily biodegradable”.

With `CCC(CC)[N+](=O)[O-]`, the ready biodegradability result was “readily biodegradable”.

For `Clc1cc2ccc(Cl)c(Cl)c2cc1Cl`, the log10 Koa worked out at 8.34.

`COC1[C@@H](O[C@@H]2O[C@H](C)[C@@H](O[C@H]3C[C@@](C)(O)[C@H](OC(=O)CC(C)C)[C@H](C)O3)[C@H](N(C)C)[C@H]2O)[C@@H](CC=O)C[C@@H](C)[C@@H](O)C=CC=CC[C@@H](C)OC(=O)C[C@H]1OC(C)=O` (stereo partly specified): the melting point was found to be 132 °C.

Turning to `Cc1cc(N)ccc1N=Nc1ccc([N+](=O)[O-])cc1`, the log10 vapour pressure (mmHg) was -9.15.

Molecule `FCC(F)F` registered a boiling point of 5 °C and a melting point of -84 °C.

Consider `O=C(CCNNC(=O)c1ccncc1)NCc1ccccc1`, for which the melting point was found to be 152 °C.

`CC1CC(C)(C)CCC1=O` (stereo unspecified) gave a boiling point of 191 °C.

Turning to `ClCCC[Si](Cl)(Cl)Cl`, the boiling point was determined as 182 °C.

In turn, `CCN(CC)C(=O)C1CN2CCc3cc(OC)c(OC)cc3C2CC1OC(C)=O` (stereo unspecified) displayed a melting point of 131 °C.

`CCCCCCCCCCC(Br)C(=O)O` (stereo unspecified) displayed a melting point of 32 °C.

Regarding `OC[C@H]1O[C@@](CO)(O[C@H]2O[C@H](CO)[C@@H](O)[C@H](O)[C@H]2O)[C@@H](O)[C@@H]1O`, the melting point came to 186 °C.

Molecule `C=C(C)C(C)(C)C` showed a boiling point of 77.9 °C, a log10 vapour pressure (mmHg) of 2.05 and a melting point of -110 °C.

For the molecule `Cc1ccc(N)c(C)c1`, the boiling point was 214 °C, the log10 vapour pressure (mmHg) is -0.876, the melting point is -14.3 °C and the ready biodegradability entry is listed as “not readily biodegradable”.

As for `CCCC1CCCCC1`, the boiling point amounted to 157 °C, the log10 vapour pressure (mmHg) was 0.622 and the melting point is -94.9 °C.

Consider `C=C1C2CCC(C2)C1(C)C` (stereo unspecified), for which the boiling point was 160 °C, the log10 vapour pressure (mmHg) was found to be 0.399, the melting point turned out to be 51.6 °C and the ready biodegradability entry is “not readily biodegradable”.

In the case of `CCC(C)(CC)C(C)C`, the boiling point is 145 °C.

Consider `Cc1ccc(Cl)cc1O`, for which the ready biodegradability result is reported as “not readily biodegradable”.

With `N#Cc1cccc(N)c1`, the boiling point worked out at 289 °C and the melting point was 54.3 °C.

`Cc1[nH]c(C)c(C)c1C` yielded a melting point of 111 °C.

The molecule `CCCCCCCCCc1ccc(O)cc1` gave a log10 Koc (L/kg) of 3.84, a log10 vapour pressure (mmHg) of -3.09 and a melting point of 42 °C.

As to `Clc1cccc2cccnc12`, the boiling point was 288 °C and the melting point is -20 °C.

In turn, `Clc1ccc(Cl)c(Cl)c1` had a boiling point of 214 °C, a log10 Henry constant (atm·m³/mol) of -2.85, a log10 Koa of 4.95 and a log10 Koc (L/kg) of 3.1. Moreover, the log10 vapour pressure (mmHg) is -0.337, the melting point was 17 °C and the ready biodegradability result is on record as “not readily biodegradable”.

As to `O=C1NC(=O)C2C3C(C(O)(c4ccccc4)c4ccccn4)=CC(C3=C(c3ccccc3)c3ccccn3)C12` (stereo unspecified), the melting point was found to be 194 °C.

Regarding `COC(=O)C1CC1`, the boiling point came to 115 °C.

`C=Cc1scnc1C` displayed a melting point of -15 °C.

Take `Brc1ccc2c(c1)Cc1ccccc1-2`: the melting point stood at 114 °C.

As to `CC=Cc1ccc(OCC)c(O)c1`, the melting point is 87 °C.

`Cc1ccc(C)nc1` showed a boiling point of 157 °C, a log10 Henry constant (atm·m³/mol) of -5.06, a log10 vapour pressure (mmHg) of 0.526 and a melting point of -16 °C.

`CN=C=S` had a boiling point of 119 °C, a log10 Koc (L/kg) of 0.97, a log10 vapour pressure (mmHg) of 0.549 and a melting point of 36 °C. Further, the ready biodegradability entry is recorded as “not readily biodegradable”.

The same data set, now with this note: fish.
Take `CC(C)NC(=O)N1CC(=O)N(c2cc(Cl)cc(Cl)c2)C1=O`: the log10 BCF amounted to 2.53.

`Cc1ccsc1`: the log10 BCF stood at 0.72 and the log10 biotransformation half-life (days) was -1.27.

With `Nc1ccncc1`, the log10 BCF is 0.66.

Molecule `c1ccc2cc3ccccc3cc2c1` showed a log10 BCF of 3.26 and a log10 biotransformation half-life (days) of 0.65.

As to `Nc1nc(N)nc(N)n1`, the log10 BCF turned out to be 0.58.

`Brc1ccc(Oc2ccc(Br)c(Br)c2)c(Br)c1` gave a log10 BCF of 6.05.

For the molecule `Nc1ccc2cc(S(=O)(=O)O)cc(O)c2c1`, the log10 BCF is 0.61.

`C=C1C2CCC(C2)C1(C)C` (stereo unspecified) displayed a log10 BCF of 2.98 and a log10 biotransformation half-life (days) of 0.96.

`CCCCCCCCCc1ccc(O)cc1` returned a log10 BCF of 2.58 and a log10 biotransformation half-life (days) of -0.23.

In turn, `Clc1ccc(Cl)c(Cl)c1` came in with a log10 BCF of 3.32 and a log10 biotransformation half-life (days) of 1.2.
